Structures are written as SMILES.

In this assay the test system is immunoglobulin light chain protein WIL-FL T46L. Put plainly: Differential scanning fluorimetry (thermal shift) assay. The class given is binding. The following applies: Table A; temperature shift [Tm]compound-[Tm]vehicle; recombinant WIL-FL T46L. A general note: In DSF a fluorescence change marks the thermal transition of the protein.
As to `Cc1cc(N2CC[C@](C)(c3ccccc3)C2)cn2nc(C(=O)N[C@@H]3CNC[C@@H]3O)nc12` [Compound 191], the DSF result is on record as “***** (>2.5° C.=*****)”. Consider `Cc1cc(N2CC[C@](C)(c3ccccc3)C2)cn2nc(C(=O)NC3CCN(CC(=O)O)C3)nc12` (stereo partly drawn) [Compound 192], for which the DSF result was “***** (>2.5° C.=*****)”. Next, `Cc1cc(N2CC[C@](C)(c3ccccc3)C2)cn2nc(C(=O)N[C@H]3CCN(CC(F)F)C3)nc12` [Compound 193]: “***** (>2.5° C.=*****)”.

For the compound `Cc1cc(N2CC[C@](C)(c3ccccc3)C2)cn2nc(C(=O)N3C[C@@H]4CN(c5cccc(C(=O)O)n5)C[C@@H]4C3)nc12` [Compound 194], the DSF result is given as “***** (>2.5° C.=*****)”. The entry for `Cc1cc(N2CC[C@](C)(c3ccccc3)C2)cn2nc(C(=O)N3CCC34CCCN(c3cccc(C(=O)O)n3)C4)nc12` (stereo partly drawn) [Compound 195] is “***** (>2.5° C.=*****)”; for `Cc1cc(N2CC[C@](C)(c3ccccc3)C2)cn2nc(C(=O)N3CCOCC3)nc12` [Compound 196] it is “***** (>2.5° C.=*****)”. The entry for `Cc1cc(N2CC[C@](C)(c3ccccc3)C2)cn2nc(C(=O)N3CCCC(C(=O)O)C3)nc12` (stereo partly drawn) [Compound 197] is “***** (>2.5° C.=*****)”; for `Cc1cc(N2CC[C@](C)(c3ccccc3)C2)cn2nc(C(=O)NC3CCOCC3)nc12` [Compound 198] it is “***** (>2.5° C.=*****)”.

With `Cc1cc(N2CC[C@](C)(c3ccccc3)C2)cn2nc(C(=O)NC3CC4CCC(C3)N4)nc12` (stereo partly drawn) [Compound 199], the DSF entry is “***** (>2.5° C.=*****)”. Next, `Cc1cc(N2CC[C@](C)(c3ccccc3)C2)cn2nc(C(=O)NC3C4CCC3NC4)nc12` (stereo partly drawn) [Compound 201]: “***** (>2.5° C.=*****)”; `Cc1cc(N2CC[C@@](C)(c3ccccc3)C2)cn2nc(C(=O)NCC(O)C(F)(F)F)nc12` (stereo partly drawn) [Compound 202]: “***** (>2.5° C.=*****)”. The entry for `Cc1cc(N2CC[C@](C)(c3ccccc3)C2)cn2nc(C(=O)NC3CNC(C(F)(F)F)C3)nc12` (stereo partly drawn) [Compound 203] is “***** (>2.5° C.=*****)”; for `Cc1cc(N2CC[C@](C)(c3ccccc3)C2)cn2nc(C(=O)NC34CCC(CO)(C3)C4)nc12` [Compound 204] it is “***** (>2.5° C.=*****)”. The entry for `Cc1cc(N2CC[C@](C)(c3ccccc3)C2)cn2nc(C(=O)NC3CC(O)(C(F)(F)F)C3)nc12` (stereo partly drawn) [Compound 205] is “***** (>2.5° C.=*****)”; for `Cc1cc(N2CC[C@](C)(c3ccccc3)C2)cn2nc(C(=O)N[C@H](CO)C(C)C)nc12` [Compound 206] it is “***** (>2.5° C.=*****)”.

On to `Cc1cc(N2CC[C@](C)(c3ccccc3)C2)cn2nc(C(=O)NC34CCC(C(=O)O)(C3)C4)nc12` [Compound 207], for which the DSF entry is “***** (>2.5° C.=*****)”. Next, `Cc1cc(N2CC[C@](C)(c3ccccc3)C2)cn2nc(C(=O)NC34CCC(C(C)(C)O)(C3)C4)nc12` [Compound 208]: “***** (>2.5° C.=*****)”; `Cc1cc(N2CC[C@](C)(c3ccccc3)C2)cn2nc(C(=O)NCC34COC(C(=O)O)(C3)C4)nc12` [Compound 209]: “***** (>2.5° C.=*****)”; `Cc1cc(N2CC[C@](C)(c3ccccc3)C2)cn2nc(C(=O)N3C[C@H]4C[C@@H]3C4C(=O)O)nc12` (stereo partly drawn) [Compound 210]: “***** (>2.5° C.=*****)”. The entry for `Cc1cc(N2CC[C@](C)(c3ccccc3)C2)cn2nc(C(=O)N3C[C@@H]4C[C@H]3C4C(=O)O)nc12` (stereo partly drawn) [Compound 211] is “***** (>2.5° C.=*****)”.

For `Cc1cc(N2CC[C@](C)(c3ccccc3)C2)cn2nc(C(=O)NC34COC(C(N)=O)(C3)C4)nc12` [Compound 212], the DSF entry is reported as “***** (>2.5° C.=*****)”. Next, `Cc1cc(N2CC[C@](C)(c3ccccc3)C2)cn2nc(C(=O)N3CC4CN(c5cccc(C(=O)O)n5)CC4C3)nc12` (stereo partly drawn) [Compound 213]: “***** (>2.5° C.=*****)”; `Cc1cc(N2CC[C@](C)(c3ccccc3)C2)cn2nc(C(=O)N3CC4(CCN4C(=O)c4cccc(C(=O)O)n4)C3)nc12` [Compound 215]: “***** (>2.5° C.=*****)”.

As to `Cc1cc(N2CC[C@](C)(c3ccccc3)C2)cn2nc(C(=O)N3CC4(CCC4Oc4cccc(C(=O)O)n4)C3)nc12` (stereo partly drawn) [Compound 216], the DSF result is “***** (>2.5° C.=*****)”. The entry for `Cc1cc(N2CC[C@](C)(c3ccccc3)C2)cn2nc(C(=O)NC3CN(c4cccc(C(=O)O)n4)C3)nc12` [Compound 217] is “***** (>2.5° C.=*****)”; for `Cc1cc(N2CC[C@](C)(c3ccccc3)C2)cn2nc(C(=O)N3CCC4(CCN(c5nc(C(=O)O)cs5)C4)C3)nc12` (stereo partly drawn) [Compound 218] it is “***** (>2.5° C.=*****)”; for `Cc1cc(N2CC[C@](C)(c3ccccc3)C2)cn2nc(C(=O)NC3CCCN(c4cccc(C(=O)O)n4)C3)nc12` (stereo partly drawn) [Compound 219] it is “***** (>2.5° C.=*****)”. Next, `Cc1cc(N2CC[C@](C)(c3ccccc3)C2)cn2nc(C(=O)NC3COC4(CCN(c5cccc(C(=O)O)n5)C4)C3)nc12` (stereo partly drawn) [Compound 220]: “***** (>2.5° C.=*****)”; `Cc1cc(N2CC[C@](C)(c3ccccc3)C2)cn2nc(C(=O)N3CC4(CC(Oc5cccc(C(=O)O)n5)C4)C3)nc12` [Compound 221]: “***** (>2.5° C.=*****)”; `Cc1cc(N2CC[C@](C)(c3ccccc3)C2)cn2nc(C(=O)N3CCC4(C3)CN(c3cccc(C(=O)O)n3)CCO4)nc12` (stereo partly drawn) [Compound 222]: “***** (>2.5° C.=*****)”. The entry for `Cc1cc(N2CC[C@](C)(c3ccccc3)C2)cn2nc(C(=O)NC3CC4(C3)CN(c3ccnc(O)c3)C4)nc12` [Compound 223] is “***** (>2.5° C.=*****)”.

As for `Cc1cc(N2CC[C@](C)(c3ccccc3)C2)cn2nc(C(=O)NC3CCC(c4ccc(C(=O)O)c(F)c4)CC3)nc12` (stereo partly drawn) [Compound 224], the DSF entry is recorded as “***** (>2.5° C.=*****)”. The entry for `Cc1cc(N2CC[C@](C)(c3ccccc3)C2)cn2nc(C(=O)N[C@H]3CC[C@H](c4ccc(C(=O)O)c(F)c4)CC3)nc12` [Compound 225] is “***** (>2.5° C.=*****)”; for `Cc1cc(N2CC[C@](C)(c3ccccc3)C2)cn2nc(C(=O)NC3CCC(c4ccnc(C(=O)O)c4)CC3)nc12` (stereo partly drawn) [Compound 226] it is “***** (>2.5° C.=*****)”. The entry for `Cc1cc(N2CC[C@](C)(c3ccccc3)C2)cn2nc(C(=O)NC3CCN(c4cc(C(=O)O)ccn4)CC3)nc12` [Compound 227] is “***** (>2.5° C.=*****)”. Next, `Cc1cc(N2CC[C@](C)(c3ccccc3)C2)cn2nc(C(=O)NC3CCC34CN(c3cccc(C(=O)O)n3)C4)nc12` (stereo partly drawn) [Compound 228]: “***** (>2.5° C.=*****)”; `Cc1cc(N2CC[C@](C)(c3ccccc3)C2)cn2nc(C(=O)NC3CCC(c4cccc(C(=O)O)n4)CC3)nc12` (stereo partly drawn) [Compound 229]: “***** (>2.5° C.=*****)”; `Cc1cc(N2CC[C@](C)(c3ccccc3)C2)cn2nc(C(=O)NC3CN(c4cccc(C(=O)O)n4)CCC3(C)O)nc12` (stereo partly drawn) [Compound 230]: “***** (>2.5° C.=*****)”.

With `Cc1cc(N2CC[C@](C)(c3ccccc3)C2)cn2nc(C(=O)N3CC4=C(C3)CN(c3cccc(C(=O)O)n3)C4)nc12` [Compound 231], the DSF entry is “***** (>2.5° C.=*****)”.

With `Cc1cc(N2CC[C@](C)(c3ccccc3)C2)cn2nc(C(=O)NC34CC3CN(c3cccc(C(=O)O)n3)C4)nc12` (stereo partly drawn) [Compound 232], the DSF entry was “***** (>2.5° C.=*****)”.

As for `COC(=O)c1n[nH]c(N2CCC3(CCN(C(=O)c4nc5c(C)cc(N6CC[C@](C)(c7ccccc7)C6)cn5n4)C3)C2)n1` (stereo partly drawn) [Compound 233], the DSF result is given as “***** (>2.5° C.=*****)”. In the case of `Cc1cc(N2CC[C@](C)(c3ccccc3)C2)cn2nc(C(=O)N3CCC4(CCN(c5nc(C(=O)O)nn5C)C4)C3)nc12` (stereo partly drawn) [Compound 234], the DSF result is “***** (>2.5° C.=*****)”. As to `Cc1cc(N2CC[C@](C)(c3ccccc3)C2)cn2nc(C(=O)N3CCC4(CCN(c5nc(C(=O)O)n[nH]5)C4)C3)nc12` (stereo partly drawn) [Compound 235], the DSF entry is “***** (>2.5° C.=*****)”.

For `Cc1cc(N2CC[C@](C)(c3ccccc3)C2)cn2nc(C(=O)N3CCC4(CCN(c5ncn[nH]5)C4)C3)nc12` (stereo partly drawn) [Compound 236], the DSF result was “***** (>2.5° C.=*****)”. Next, `Cc1cc(N2CC[C@](C)(c3ccccc3)C2)cn2nc(C(=O)NC3CCN(c4ncc(S(C)(=N)=O)cn4)C3)nc12` (stereo partly drawn) [Compound 237]: “***** (>2.5° C.=*****)”; `Cc1cc(N2CC[C@](C)(c3ccccc3)C2)cn2nc(C(=O)NC3CCN(c4nccc(C(=O)O)n4)CC3)nc12` [Compound 238]: “***** (>2.5° C.=*****)”; `Cc1cc(N2CC[C@](C)(c3ccccc3)C2)cn2nc(C(=O)N3CCC4(CC3)CCN(c3cccc(C(=O)O)n3)C4)nc12` [Compound 239]: “***** (>2.5° C.=*****)”. Next, `Cc1cc(N2CC[C@](C)(c3ccccc3)C2)cn2nc(C(=O)N3CC4(CCN(c5cccc(C(=O)O)n5)C4)C3)nc12` [Compound 240]: “***** (>2.5° C.=*****)”; `Cc1cc(N2CC[C@](C)(c3ccccc3)C2)cn2nc(C(=O)N3CCC4(C3)CN(c3cccc(C(=O)O)n3)C4)nc12` [Compound 241]: “***** (>2.5° C.=*****)”. The entry for `Cc1cc(N2CC[C@](C)(c3ccccc3)C2)cn2nc(C(=O)N3CCOC4(CCN(c5cccc(C(=O)O)n5)C4)C3)nc12` (stereo partly drawn) [Compound 242] is “***** (>2.5° C.=*****)”. Consider `Cc1cc(N2CC[C@](C)(c3ccccc3)C2)cn2nc(C(=O)NC3CC(=O)N(c4ccnc(C(=O)O)c4)C3)nc12` (stereo partly drawn) [Compound 243], for which the DSF result is recorded as “***** (>2.5° C.=*****)”. As to `Cc1cc(N2CC[C@](C)(c3ccccc3)C2)cn2nc(C(=O)N3CC4CN(c5cccc(C(=O)O)n5)CC4(F)C3)nc12` (stereo partly drawn) [Compound 244], the DSF entry was “***** (>2.5° C.=*****)”.

In the case of `Cc1cc(N2CC[C@](C)(c3ccccc3)C2)cn2nc(C(=O)NC3CCC4(CCN(c5cccc(C(=O)O)n5)C4)C3)nc12` (stereo partly drawn) [Compound 245], the DSF result is recorded as “***** (>2.5° C.=*****)”. The entry for `Cc1cc(N2CC[C@](C)(c3ccccc3)C2)cn2nc(C(=O)N3CC4CN(c5cccc(C(=O)O)n5)CC4(O)C3)nc12` (stereo partly drawn) [Compound 246] is “***** (>2.5° C.=*****)”.

The record behind these values is patent US20260285857A1, “BICYCLIC AND HETEROCYCLIC AMIDE COMPOUNDS” (priority 2024, published 2026).
